Source: US20260210939A1, “MODIFIED OLFACTORY RECEPTORS” (GIVAUDAN SA, priority 2022, published 2026)

What was measured:
[1] = molecular target: T1, OR2T11 (Homo sapiens, UniProt Q8NH01, C119R); experiment: CRE-luciferase assay, HEK293T cells expressing OR2T11 (wild-type / modified C-terminus); assay type: cell-based
T1 construct: Improved functional expression of modified OR-genes containing the truncated, optimized C-terminus; expressed in transfected cells; host or cells: HEK293T stably expressing human RTP1S(V227I) and RTP2(L220R)
T1 sequence (Q8NH01 with tags, fused parts or gaps C119R): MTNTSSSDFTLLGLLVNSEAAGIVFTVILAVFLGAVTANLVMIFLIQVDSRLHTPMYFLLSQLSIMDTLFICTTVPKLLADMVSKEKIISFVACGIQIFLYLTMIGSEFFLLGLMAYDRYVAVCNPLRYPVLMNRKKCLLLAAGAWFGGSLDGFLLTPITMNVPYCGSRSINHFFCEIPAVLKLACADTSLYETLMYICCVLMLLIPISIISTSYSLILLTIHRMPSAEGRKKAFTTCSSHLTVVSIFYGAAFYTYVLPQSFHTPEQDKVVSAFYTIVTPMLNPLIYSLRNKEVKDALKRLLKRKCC

[2] = molecular target: T2, OR2T4 (Homo sapiens, UniProt Q8NH00, D328E/G331D/M330K); conditions: OR2T4 with optimized C-terminus SEQ ID NO: 86
T2 sequence (Q8NH00 with tags, fused parts or gaps D328E/M330K/G331D): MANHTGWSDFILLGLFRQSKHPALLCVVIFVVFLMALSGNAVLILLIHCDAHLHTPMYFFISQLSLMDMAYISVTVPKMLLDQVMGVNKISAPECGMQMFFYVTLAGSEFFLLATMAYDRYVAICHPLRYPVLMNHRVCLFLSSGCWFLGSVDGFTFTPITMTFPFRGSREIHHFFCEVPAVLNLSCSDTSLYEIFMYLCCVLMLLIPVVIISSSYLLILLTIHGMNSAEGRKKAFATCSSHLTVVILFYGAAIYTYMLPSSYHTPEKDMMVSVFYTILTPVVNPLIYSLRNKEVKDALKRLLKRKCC

[3] = molecular target: T3, OR10A3 (Homo sapiens, UniProt P58181); experiment: Dose-response test of single lactones on OR10A3 (luciferase); assay type: cell-based
T3 construct: Class II OR library members with modified C-terminal domains; expressed in transfected cells
T3 sequence (P58181 with tags, fused parts or gaps): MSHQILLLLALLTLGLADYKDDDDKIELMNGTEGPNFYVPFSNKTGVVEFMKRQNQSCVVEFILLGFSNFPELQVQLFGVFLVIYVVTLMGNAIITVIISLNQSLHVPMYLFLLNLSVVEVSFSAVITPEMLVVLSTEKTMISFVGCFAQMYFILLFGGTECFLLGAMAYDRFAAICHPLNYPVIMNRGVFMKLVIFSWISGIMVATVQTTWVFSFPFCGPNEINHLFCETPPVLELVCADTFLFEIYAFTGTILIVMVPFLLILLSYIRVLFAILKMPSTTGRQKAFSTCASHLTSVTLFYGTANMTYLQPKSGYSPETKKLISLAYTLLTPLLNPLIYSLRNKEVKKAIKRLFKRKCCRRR
Experimental: In a subsequent de-convultion experiment, the single ingredients were tested in a dose-response test on all the identified OR. […] Thus, OR2AP1 and OR2J2 are particularly strongly activated by the long-chain dodecalactone gamma, while OR10A3 is very sensitive to several longer chain lactones. […] Among the five OR, OR10A3 is the most sensitive.

SMILES | Comments on efficacy [1] | Detection threshold; concentration for 2-fold induction ([1]; changed C-term. SEQ ID NO: 86) [µM] | EC50 ([1]; changed C-term. SEQ ID NO: 86) [µM] | Fold-improvement potency ([1]; changed C-term. vs wild-type) | Fold-improvement threshold ([1]; changed C-term. vs wild-type) | Detection threshold; concentration for 2-fold induction ([1]; wild-type) [µM] | EC50 ([1]; wild-type) [µM] | ligand identification in sulfur odorant screen [2] | EC10, concentration for 10-fold OR activation [3] [μM]
C=CCSSCC=C [Diallyl disulfide] | No induction | 2.03 | 6.51 | >>40 | >100 | >200 | > 200 | good ligands | 
CCCC1CCC(=O)O1 (stereo not drawn) [Heptalactone gamma] |  |  |  |  |  |  |  |  | 298.04
